One block for each molecule: values may come before it.
Columns and labels:
NCI-H441 [1] = experiment: In vivo combination of 224G11 and Docetaxel on NCI-H441 xenograft model; set-up: species or system Athymic nude mice; conditions: D11 to D35; Docetaxel 7.5 mg/kg i.p.
Experimental: (§1) NCI-H441 cells from ATCC were routinely cultured in RPMI 1640 medium, 10% FCS, 1% L-Glutamine. Cells were split two days before engraftment being in exponential phase of growth. Nine million NCI-H441 cells were engrafted to Athymic nude mice. […] Mice were treated i.p. either with a loading dose of 2 mg of 224G11 Mab/mouse and then twice a week with 1 mg of antibody/mouse or with 4 injections of Docetaxel (D5, D12, D19, D26) at 7.5 mg/kg. A third group administered with the combine treatment was also included. Docetaxel was given by i.p. injections. Tumor volume was measured twice a week and calculated by the formula: π/6×length×width×height and animal weights were monitored every day over the period of Docetaxel treatment. Statistical analysis was performed at each measured time using either a t-test or a Mann-Whitney test. […] Results are represented in FIG. 47.

NCI-H441 [2] = experiment: In vivo combination of 224G11 and Doxorubicin on NCI-H441 xenograft model; set-up: species or system Athymic nude mice; conditions: D11 to D39; Doxorubicin 5 mg/kg i.v.
Experimental: as §1, with “growth. Ten” for “growth. Nine”, “of Doxorubicin” for “of Docetaxel”, “at 5” for “at 7.5”, “included. Doxorubicin” for “included. Docetaxel”, “by i.v.” for “by i.p.”, “FIG. 46.” for “FIG. 47.”

c-Met-Fc = biological target: T1, c-Met-Fc (Homo sapiens, UniProt P08581); experiment: Displacement of [125I]-HGF binding to immobilized c-Met; conditions: 0.1 pM to 1 μM
T1 construct: c-Met extracellular domain fusion protein (10-15 g/dose/mouse) (R&D Systems, Catalog #358MT); purchased R&D Systems
T1 sequence (P08581 25-932 limits assumed): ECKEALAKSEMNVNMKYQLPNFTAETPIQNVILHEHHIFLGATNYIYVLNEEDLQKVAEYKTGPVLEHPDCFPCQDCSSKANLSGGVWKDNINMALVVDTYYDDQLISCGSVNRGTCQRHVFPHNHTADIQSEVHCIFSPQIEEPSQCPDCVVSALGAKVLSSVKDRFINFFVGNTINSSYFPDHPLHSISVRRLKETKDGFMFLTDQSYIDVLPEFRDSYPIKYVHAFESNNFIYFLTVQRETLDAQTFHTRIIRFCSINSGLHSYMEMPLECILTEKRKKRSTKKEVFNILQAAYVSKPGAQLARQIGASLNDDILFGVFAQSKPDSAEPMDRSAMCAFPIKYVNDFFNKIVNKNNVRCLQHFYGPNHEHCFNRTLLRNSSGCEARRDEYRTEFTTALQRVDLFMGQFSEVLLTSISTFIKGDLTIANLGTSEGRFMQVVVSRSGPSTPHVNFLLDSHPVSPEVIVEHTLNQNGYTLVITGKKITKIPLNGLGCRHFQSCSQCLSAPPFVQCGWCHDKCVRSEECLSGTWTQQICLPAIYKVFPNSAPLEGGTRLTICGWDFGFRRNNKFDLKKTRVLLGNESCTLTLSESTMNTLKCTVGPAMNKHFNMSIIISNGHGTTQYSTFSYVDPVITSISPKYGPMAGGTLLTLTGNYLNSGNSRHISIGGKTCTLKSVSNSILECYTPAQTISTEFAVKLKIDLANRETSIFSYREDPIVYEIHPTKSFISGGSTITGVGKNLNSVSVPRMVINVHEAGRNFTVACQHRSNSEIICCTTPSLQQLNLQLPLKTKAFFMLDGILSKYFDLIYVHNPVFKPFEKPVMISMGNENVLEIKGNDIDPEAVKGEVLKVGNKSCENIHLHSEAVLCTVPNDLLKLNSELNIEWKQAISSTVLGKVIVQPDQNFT
Experimental: To determine whether the anti-c-Met antibodies were able to displace HGF, binding experiments were set up. Briefly, protein A FlashPlate 96-well microplates (Perkin Elmer) were saturated with 0.5% gelatine in PBS (200 μl/well, 2 h at room temperature) before adding recombinant c-Met-Fc (R&D Systems) as a coating protein. […] of a 1 μg/ml c-Met-Fc solution in PBS were added to each well. Plates were then incubated overnight at 4° C. Free residual Protein A sites were further saturated with a non relevant hIgG (0.5 μg/well in PBS) for 2 h at room temperature. Plates were washed with PBS after each step.
For competition assays, binding of [^125I]-HGF (specific activity ˜2,000 Ci/mmol) at 200 pM to immobilized c-Met was measured in the presence of varying concentrations of the anti-c-Met monoclonal antibodies 11E1, 224G11, 223C4, 227H1 or HGF (R&D Systems) ranging from 0.1 pM to 1 μM in PBS pH 7.4. The plates were incubated at room temperature for 6 h, then counted on a Packard Top Count Microplate Scintillation Counter. Non specific binding was determined in the presence of […] of HGF. The monoclonal antibody 9G4, which is not directed at c-Met but specifically recognizes an E. coli protein, was used as mouse IgG1 isotype control.
Percent of total specific [^125I]-HGF binding was plotted as a function of ligand concentration on semilog graphs. […]

G55 = conditions: glioblastoma growing independently of HGF; cited from earlier work

Molecule: CC(=O)O[C@@]12CO[C@@H]1C[C@H](O)[C@@]1(C)C(=O)[C@H](O)C3=C(C)[C@@H](OC(=O)[C@H](O)[C@@H](NC(=O)OC(C)(C)C)c4ccccc4)C[C@@](O)([C@@H](OC(=O)c4ccccc4)[C@H]21)C3(C)C [Docetaxel, reference compound]
anti-tumor activity compared to the control group (NCI-H441 [1]): significant anti-tumor activity

Molecule: COc1cccc2c1C(=O)c1c(O)c3c(c(O)c1C2=O)C[C@@](O)(C(=O)CO)C[C@@H]3O[C@H]1C[C@H](N)[C@H](O)[C@H](C)O1 [Doxorubicin, reference compound]
anti-tumor activity compared to the control group (NCI-H441 [2]): significant anti-tumor activity

displacement of [125I]-HGF binding to immobilized c-Met (c-Met-Fc): fully displace
Molecule: HGF: hepatocyte growth factor (R&D Systems), c-Met ligand used as unlabeled competitor

B1: OA5D5: monovalent engineered form of 5D5 produced as a recombinant protein in E. Coli (Genentech) (antibody, chains of the INN, looked up, V domains shown)
VH: EVQLVESGGGLVQPGGSLRLSCAASGYTFTSYWLHWVRQAPGKGLEWVGMIDPSNSDTRFNPNFKDRFTISADTSKNTAYLQMNSLRAEDTAVYYCATYRSYVTPLDYWGQGTLVTVSS
VL: DIQMTQSPSSLSASVGDRVTITCKSSQSLLYTSSQKNYLAWYQQKPGKAPKLLIYWASTRESGVPSRFSGSGSGTDFTLTISSLQPEDFATYYCQQYYAYPWTFGQGTKVEIK
modifications: one-armed monovalent antibody
effect on G55 tumor growth (G55): no significant effect
